Consider eleven compounds from patent US11612661B2 (priority 2019, dated 2023).

The target of one assay is human α9α10 nAChR (Homo sapiens, UniProt Q9GZZ6+Q9UGM1). Nature of the assay: cell-based. It counts as cell-based.
In the next assay the target is rat α9α10 nAChR (Rattus norvegicus, UniProt P43144+Q9JLB5). Nature of the assay: cell-based. The format is cell-based. To be noted: α9α10 nAChR IC50 (nM) Rat.

SMILES strings stand for the structures. Bridge positions count the residues as written; N and C are the ends. Square brackets hold non-standard residues; d marks the D form. Triazole bridges read from a SMILES are 1,4-linked. Peptide text beside a SMILES is read from it. Tyr(3-I) = N[C@@H](Cc1ccc(O)c(I)c1)C(=O)O; Orn(N3) = [N-]=[N+]=NCCC[C@H](N)C(=O)O; Dap(N3) = [N-]=[N+]=NC[C@H](N)C(=O)O; NMeY = CN[C@@H](Cc1ccc(O)cc1)C(=O)O; Aha = [N-]=[N+]=NCC[C@H](N)C(=O)O; Cit = NC(=O)NCCC[C@H](N)C(=O)O; Hpra = C#CCC[C@H](N)C(=O)O; Pra = C#CC[C@H](N)C(=O)O Some results are limits rather than exact numbers.

rat α9α10 nAChR, sequence (P43144 26-479 limits assumed): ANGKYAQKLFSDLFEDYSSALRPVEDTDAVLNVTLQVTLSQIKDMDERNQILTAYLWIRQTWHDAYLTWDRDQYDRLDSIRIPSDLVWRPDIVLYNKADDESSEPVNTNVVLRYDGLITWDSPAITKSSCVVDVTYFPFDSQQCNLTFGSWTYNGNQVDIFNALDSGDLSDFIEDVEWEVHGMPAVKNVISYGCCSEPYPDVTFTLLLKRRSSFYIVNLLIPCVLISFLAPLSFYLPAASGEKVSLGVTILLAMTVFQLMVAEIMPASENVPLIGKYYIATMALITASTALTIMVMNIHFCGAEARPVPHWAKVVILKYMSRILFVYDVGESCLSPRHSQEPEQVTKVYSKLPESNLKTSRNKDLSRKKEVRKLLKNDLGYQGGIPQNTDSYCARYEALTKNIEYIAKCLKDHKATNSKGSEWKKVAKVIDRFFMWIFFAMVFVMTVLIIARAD
rat α9α10 nAChR, sequence (Q9JLB5 25-447 limits assumed): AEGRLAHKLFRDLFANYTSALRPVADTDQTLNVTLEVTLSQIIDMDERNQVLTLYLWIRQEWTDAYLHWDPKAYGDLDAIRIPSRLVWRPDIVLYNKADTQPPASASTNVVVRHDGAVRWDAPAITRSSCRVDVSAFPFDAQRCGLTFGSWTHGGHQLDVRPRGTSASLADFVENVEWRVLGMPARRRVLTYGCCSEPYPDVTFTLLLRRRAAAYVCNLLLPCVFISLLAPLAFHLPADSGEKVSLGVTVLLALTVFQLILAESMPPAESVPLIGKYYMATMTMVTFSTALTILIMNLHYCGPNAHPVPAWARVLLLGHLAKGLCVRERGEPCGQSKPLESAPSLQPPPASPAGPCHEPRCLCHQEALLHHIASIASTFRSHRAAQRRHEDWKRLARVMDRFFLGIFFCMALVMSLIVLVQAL
human α9α10 nAChR, sequence (Q9UGM1 26-479 limits assumed): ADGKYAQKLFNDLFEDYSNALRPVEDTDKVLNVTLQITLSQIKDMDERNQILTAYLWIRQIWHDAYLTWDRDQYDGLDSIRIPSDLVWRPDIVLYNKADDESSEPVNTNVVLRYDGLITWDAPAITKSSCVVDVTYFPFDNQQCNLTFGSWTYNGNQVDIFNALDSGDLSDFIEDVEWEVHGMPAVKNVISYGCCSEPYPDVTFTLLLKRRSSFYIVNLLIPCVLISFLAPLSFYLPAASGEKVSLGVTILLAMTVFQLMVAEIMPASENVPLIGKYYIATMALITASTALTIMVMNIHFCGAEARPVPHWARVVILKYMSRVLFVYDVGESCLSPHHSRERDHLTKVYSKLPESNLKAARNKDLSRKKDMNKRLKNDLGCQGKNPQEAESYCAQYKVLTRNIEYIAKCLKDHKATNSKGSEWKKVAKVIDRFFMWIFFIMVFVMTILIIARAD
human α9α10 nAChR, sequence (Q9GZZ6 25-450 limits assumed): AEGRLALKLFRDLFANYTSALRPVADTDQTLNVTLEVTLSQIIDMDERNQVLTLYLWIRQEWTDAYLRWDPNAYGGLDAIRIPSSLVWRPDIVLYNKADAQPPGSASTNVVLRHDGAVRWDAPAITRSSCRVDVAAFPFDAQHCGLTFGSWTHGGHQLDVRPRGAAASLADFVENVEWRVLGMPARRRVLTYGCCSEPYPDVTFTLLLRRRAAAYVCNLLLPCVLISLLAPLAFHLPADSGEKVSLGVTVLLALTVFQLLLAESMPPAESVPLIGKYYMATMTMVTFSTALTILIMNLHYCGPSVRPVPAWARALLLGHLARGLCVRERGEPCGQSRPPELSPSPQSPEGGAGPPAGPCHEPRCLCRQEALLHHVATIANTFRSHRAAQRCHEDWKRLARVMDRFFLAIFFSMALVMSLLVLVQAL

As to `C[C@@H](O)[C@@H]1NC(=O)[C@@H]2CCc3cn(nn3)CC[C@@H](C(=O)N[C@@H](Cc3ccc(O)cc3)C(=O)O)NC(=O)[C@H](CCC(N)=O)NC(=O)[C@H](Cc3c[nH]c4ccccc34)NC(=O)[C@H](CCCNC(N)=O)NC(=O)[C@H](CSSC[C@H](NC(=O)CN)C(=O)N2)NC(=O)[C@H](CCCNC(=N)N)NC(=O)[C@@H]2CCCN2C(=O)[C@H](CC(=O)O)NC1=O` [Ih, L-tyrosine, glycyl-L-cysteinyl-(2S)-2-aminobutanoyl-L-threonyl-L-α-aspartyl-L-prolyl-L-arginyl-L-cysteinyl-N5-(aminocarbonyl)-L-ornithyl-L-tryptophyl-L-glutaminyl-L-(2S)-2-aminobutanoyl-cyclic (2→8)-disulfide-cyclic 3^4,12^4-(1H-1,2,3-triazole-4,1-diyl)] (H-GC[Hpra]TDPRC[Cit]WQ[Aha]Y-OH; disulfide 2-8; triazole 3-12), the figures for the IC50 at human α9α10 nAChR and against rat α9α10 nAChR were 8 ± 1.5 nM and 8.5 ± 1.1 nM, respectively.

For `C[C@@H](O)[C@@H]1NC(=O)[C@@H]2Cc3cn(nn3)CCC[C@@H](C(=O)N[C@@H](Cc3ccc(O)cc3)C(=O)N[C@H](Cc3ccc(O)cc3)C(=O)O)NC(=O)[C@H](CCC(N)=O)NC(=O)[C@H](Cc3c[nH]c4ccccc34)NC(=O)[C@H](CCCNC(N)=O)NC(=O)[C@H](CSSC[C@H](NC(=O)CN)C(=O)N2)NC(=O)[C@H](CCCNC(=N)N)NC(=O)[C@@H]2CCCN2C(=O)[C@H](CC(=O)O)NC1=O` [Io, D-tyrosine, glycyl-L-cysteinyl-L-alanyl-L-threonyl-L-α-aspartyl-L-prolyl-L-arginyl-L-cysteinyl-N5-(aminocarbonyl)-L-ornithyl-L-tryptophyl-L-glutaminyl-L-norvalyl-L-tyrosyl-cyclic (2→8)-disulfide-cyclic 3^3,12^5-(1H-1,2,3-triazole-4,1-diyl)] (H-GC[Pra]TDPRC[Cit]WQ[Orn(N3)]Y[dY]-OH; disulfide 2-8; triazole 3-12), the values for the IC50 against human α9α10 nAChR and against rat α9α10 nAChR were 59 nM and ≤ 10 nM, respectively.

For `C[C@@H](O)[C@@H]1NC(=O)[C@@H]2Cc3cn(nn3)CCC[C@@H](C(=O)N[C@H](CCCNC(=N)N)C(=O)O)NC(=O)[C@H](CCC(N)=O)NC(=O)[C@H](Cc3c[nH]c4ccccc34)NC(=O)[C@H](CCCNC(N)=O)NC(=O)[C@H](CSSC[C@H](NC(=O)CN)C(=O)N2)NC(=O)[C@H](CCCNC(=N)N)NC(=O)[C@@H]2CCCN2C(=O)[C@H](CC(=O)O)NC1=O` [Is, D-arginine, glycyl-L-cysteinyl-L-alanyl-L-threonyl-L-α-aspartyl-L-prolyl-L-arginyl-L-cysteinyl-N5-(aminocarbonyl)-L-ornithyl-L-tryptophyl-L-glutaminyl-L-norvalyl-cyclic (2→8)-disulfide-cyclic 3^3,12^5-(1H-1,2,3-triazole-4,1-diyl)] (H-GC[Pra]TDPRC[Cit]WQ[Orn(N3)][dR]-OH; disulfide 2-8; triazole 3-12), at human α9α10 nAChR, the IC50 (commonly the concentration needed to halve the response being measured) turned out to be 59 nM.

Consider `C[C@@H](O)[C@@H]1NC(=O)[C@@H]2Cc3cn(nn3)C[C@@H](C(=O)N[C@@H](Cc3ccc(O)cc3)C(N)=O)NC(=O)[C@H](CCC(N)=O)NC(=O)[C@H](Cc3ccc(O)c(I)c3)NC(=O)[C@H](CCCNC(N)=O)NC(=O)[C@H](CSSC[C@H](NC(=O)CN)C(=O)N2)NC(=O)[C@H](CCCNC(=N)N)NC(=O)[C@@H]2CCCN2C(=O)[C@H](CC(=O)O)NC1=O` [If, L-tyrosinamide, glycyl-L-cysteinyl-L-alanyl-L-threonyl-L-α-aspartyl-L-prolyl-L-arginyl-L-cysteinyl-N5-(aminocarbonyl)-L-ornithyl-L-3-iodotyrosyl-L-glutaminyl-L-alanyl-cyclic (2→8)-disulfide-cyclic 3^3,12^3-(1H-1,2,3-triazole-4,1-diyl)] (H-GC[Pra]TDPRC[Cit][Tyr(3-I)]Q[Dap(N3)]Y-NH2; disulfide 2-8; triazole 3-12), for which the concentration for half-maximal inhibition (IC50) at human α9α10 nAChR amounted to 1520 ± 116 nM; at rat α9α10 nAChR, 12.5 ± 8.7 nM.

At human α9α10 nAChR, `C[C@@H](O)[C@@H]1NC(=O)[C@@H]2Cc3cn(nn3)CCC[C@@H](C(=O)N[C@@H](Cc3ccccc3)C(=O)O)NC(=O)[C@H](CCC(N)=O)NC(=O)[C@H](Cc3c[nH]c4ccccc34)NC(=O)[C@H](CCCNC(N)=O)NC(=O)[C@H](CSSC[C@H](NC(=O)CN)C(=O)N2)NC(=O)[C@H](CCCNC(=N)N)NC(=O)[C@@H]2CCCN2C(=O)[C@H](CC(=O)O)NC1=O` [Il, L-phenylalanine, glycyl-L-cysteinyl-L-alanyl-L-threonyl-L-α-aspartyl-L-prolyl-L-arginyl-L-cysteinyl-N5-(aminocarbonyl)-L-ornithyl-L-tryptophyl-L-glutaminyl-L-norvalyl-cyclic (2→8)-disulfide-cyclic 3^3,12^5-(1H-1,2,3-triazole-4,1-diyl)] (H-GC[Pra]TDPRC[Cit]WQ[Orn(N3)]F-OH; disulfide 2-8; triazole 3-12) showed an IC50 of 11 ± 1.4 nM.

As to `C[C@@H](O)[C@@H]1NC(=O)[C@@H]2CCCc3cn(nn3)C[C@@H](C(=O)N[C@@H](Cc3ccc(O)cc3)C(=O)O)NC(=O)[C@H](CCC(N)=O)NC(=O)[C@H](Cc3c[nH]c4ccccc34)NC(=O)[C@H](CCCNC(N)=O)NC(=O)[C@H](CSSC[C@H](NC(=O)CN)C(=O)N2)NC(=O)[C@H](CCCNC(=N)N)NC(=O)[C@@H]2CCCN2C(=O)[C@H](CC(=O)O)NC1=O` [Ij, L-tyrosine, glycyl-L-cysteinyl-(2S)-2-aminopentanoyl-L-alanyl-L-threonyl-L-α-aspartyl-L-prolyl-L-arginyl-L-cysteinyl-N5-(aminocarbonyl)-L-ornithyl-L-3-iodotyrosyl-L-glutaminyl-L-alanyl-cyclic (2→8)-disulfide-cyclic 3^5,12^3-(1H-1,2,3-triazole-4,1-diyl)], the half-inhibitory concentration (IC50) against human α9α10 nAChR is 152 ± 71 nM; on rat α9α10 nAChR it was 69 ± 8.5 nM.

Regarding `C[C@@H](O)[C@@H]1NC(=O)[C@@H]2Cc3cn(nn3)CCC[C@@H](C(=O)N[C@@H](Cc3ccc(O)cc3)C(=O)N(C)[C@@H](Cc3ccc(O)cc3)C(=O)O)NC(=O)[C@H](CCC(N)=O)NC(=O)[C@H](Cc3c[nH]c4ccccc34)NC(=O)[C@H](CCCNC(N)=O)NC(=O)[C@H](CSSC[C@H](NC(=O)CN)C(=O)N2)NC(=O)[C@H](CCCNC(=N)N)NC(=O)[C@@H]2CCCN2C(=O)[C@H](CC(=O)O)NC1=O` [Ip, L-tyrosine, glycyl-L-cysteinyl-L-alanyl-L-threonyl-L-α-aspartyl-L-prolyl-L-arginyl-L-cysteinyl-N5-(aminocarbonyl)-L-ornithyl-L-tryptophyl-L-glutaminyl-L-norvalyl-L-tyrosyl-N-methyl-cyclic (2→8)-disulfide-cyclic 3^3,12^5-(1H-1,2,3-triazole-4,1-diyl)] (H-GC[Pra]TDPRC[Cit]WQ[Orn(N3)]Y[NMeY]-OH; disulfide 2-8; triazole 3-12), the results for the IC50 at human α9α10 nAChR and at rat α9α10 nAChR were 26 ± 1.4 nM and ≤ 10 nM, respectively.

On to `C[C@@H](O)[C@@H]1NC(=O)[C@@H]2CCCCNC(=O)CC[C@@H](C(=O)N[C@@H](Cc3ccc(O)cc3)C(N)=O)NC(=O)[C@H](CCC(N)=O)NC(=O)[C@H](Cc3ccc(O)c(I)c3)NC(=O)[C@H](CCCNC(N)=O)NC(=O)[C@H](CSSC[C@H](NC(=O)CN)C(=O)N2)NC(=O)[C@H](CCCNC(=N)N)NC(=O)[C@@H]2CCCN2C(=O)[C@H](CC(=O)O)NC1=O` [Ix] (H-GCKTDPRC[Cit][Tyr(3-I)]QEY-NH2; disulfide 2-8; lactam 3-12), for which the IC50 at human α9α10 nAChR is 123 ± 22 nM; at rat α9α10 nAChR, 21 ± 1.4 nM.

As for `C[C@@H](O)[C@@H]1NC(=O)[C@@H]2CCCn3cc(nn3)C[C@@H](C(=O)N[C@@H](Cc3ccc(O)cc3)C(N)=O)NC(=O)[C@H](CCC(N)=O)NC(=O)[C@H](Cc3ccc(O)c(I)c3)NC(=O)[C@H](CCCNC(N)=O)NC(=O)[C@H](CSSC[C@H](NC(=O)CN)C(=O)N2)NC(=O)[C@H](CCCNC(=N)N)NC(=O)[C@@H]2CCCN2C(=O)[C@H](CC(=O)O)NC1=O` [Ie, L-tyrosinamide, glycyl-L-cysteinyl-L-norvalyl-L-threonyl-L-α-aspartyl-L-prolyl-L-arginyl-L-cysteinyl-N5-(aminocarbonyl)-L-ornithyl-L-3-iodotyrosyl-L-glutaminyl-L-alanyl-cyclic (2→8)-disulfide-cyclic 3^5,12^3-(1H-1,2,3-triazole-1,4-diyl)] (H-GC[Orn(N3)]TDPRC[Cit][Tyr(3-I)]Q[Pra]Y-NH2; disulfide 2-8; triazole 3-12), the values for the IC50 at human α9α10 nAChR and against rat α9α10 nAChR were 115 ± 56 nM and 6.6 ± 1.7 nM, respectively.

For the compound `C[C@@H](O)[C@@H]1NC(=O)[C@@H]2CCn3cc(nn3)CC[C@@H](C(=O)N[C@@H](Cc3ccc(O)cc3)C(=O)O)NC(=O)[C@H](CCC(N)=O)NC(=O)[C@H](Cc3c[nH]c4ccccc34)NC(=O)[C@H](CCCNC(N)=O)NC(=O)[C@H](CSSC[C@H](NC(=O)CN)C(=O)N2)NC(=O)[C@H](CCCNC(=N)N)NC(=O)[C@@H]2CCCN2C(=O)[C@H](CC(=O)O)NC1=O` [Ii, L-tyrosine, glycyl-L-cysteinyl-(2S)-2-aminobutanoyl-L-threonyl-L-α-aspartyl-L-prolyl-L-arginyl-L-cysteinyl-N5-(aminocarbonyl)-L-ornithyl-L-tryptophyl-L-glutaminyl-L-(2S)-2-aminobutanoyl-cyclic (2→8)-disulfide-cyclic 3^4,12^4-(1H-1,2,3-triazole-1,4-diyl)] (H-GC[Aha]TDPRC[Cit]WQ[Hpra]Y-OH; disulfide 2-8; triazole 3-12), the IC50 at human α9α10 nAChR amounted to 3.4 ± 1.4 nM; on rat α9α10 nAChR, 1.6 ± 0.6 nM.

The compound `C[C@@H](O)[C@@H]1NC(=O)[C@@H]2Cc3cn(nn3)CCC[C@@H](C(=O)N[C@H](Cc3ccc(O)cc3)C(=O)O)NC(=O)[C@H](CCC(N)=O)NC(=O)[C@H](Cc3c[nH]c4ccccc34)NC(=O)[C@H](CCCNC(N)=O)NC(=O)[C@H](CSSC[C@H](NC(=O)CN)C(=O)N2)NC(=O)[C@H](CCCNC(=N)N)NC(=O)[C@@H]2CCCN2C(=O)[C@H](CC(=O)O)NC1=O` [Im, D-tyrosine, glycyl-L-cysteinyl-L-alanyl-L-threonyl-L-α-aspartyl-L-prolyl-L-arginyl-L-cysteinyl-N5-(aminocarbonyl)-L-ornithyl-L-tryptophyl-L-glutaminyl-L-norvalyl-cyclic (2→8)-disulfide-cyclic 3^3,12^5-(1H-1,2,3-triazole-4,1-diyl)] (H-GC[Pra]TDPRC[Cit]WQ[Orn(N3)][dY]-OH; disulfide 2-8; triazole 3-12) registered an IC50 at human α9α10 nAChR of 50 ± 1.2 nM.
